From patent US20070203209A1, “Useful indole compounds” (priority 2005, published 2007) come the findings set out here.

This experiment relates to ovalbumin-induced eosinophil induction (eosinophils in BAL fluid). Briefly: Rat Ovalbumin Model (ovalbumin-induced airway cell proliferation and inflammation). The class given is in vivo, Brown Norway rats. The note with it: ability to prevent ovalbumin-induced eosinophil induction (percentage of eosinophils in BAL fluid); test compounds dosed orally at 5 mg/kg twice daily, days 5-12; samples 24 hours after last OVA challenge. How it is done:
Complete protocol details can be found in Eynott et al. (2003. J. Pharmacol. Ther. 304:22-29). Briefly, Brown Norway rats are sensitized on days 1, 2, and 3 with intraperitoneal (i.p.) injections of lmg ovalbumin (OVA) and 100 mg Al(OH)3 in 1 mL 0.9% NaCl saline. They are then exposed to either 0.9% NaCl saline or 1% OVA aerosol every 3rd day (days 6, 9, & 12) for 30 minutes. 2 mg/kg dexamethasone is used as a positive control and is dosed i.p. once a day on days 4, 5, 6, 9, & 12. Vehicle (15% β-cyclodextrins in DMSO) and test compounds are dosed orally twice a day on days 5-12. On challenge days, all animals are treated 1 hour prior to OVA allergen exposure and, if required for twice a day treatment, ˜4-8 hours after allergen exposure. Samples are collected 24 hours after the last OVA challenge. For sample collection, rats are anaesthetized by administration of 10 mg/kg xylazine and 60 mg/kg ketamine intraperitoneally. Once the rats were fully anesthetized, blood is collected for serum via the retro-orbital route. The rats are subsequently perfused by injecting 30 mL PBS through the right ventricle of the heart after the abdominal aorta is severed. A tracheostomy is then performed and bronchoalveolar lavage fluid (BAL) is collected through five 5 mL rinses using Hank's Balanced Salt Solution, which was kept on ice. Airway inflammatory cell accumulation and proliferation of cells are measured through the BAL fluid collection and subsequent cell counts. Cytospin slides are prepared and eosinophil % are determined by counting ˜400 cells per slide. The test compounds are dosed at 5 mg/kg twice daily. Activity is scored based on the ability of the test compound to prevent ovalbumin-induced eosinophil induction (as determined by percentage of eosinophils in BAL fluid).
Consider `Cc1cc2c(CC(=O)O)c(C)n(Cc3nc4ccccc4s3)c2cc1Cl` [[1-(1,3-benzothiazol-2-ylmethyl)-6-chloro-2,5-dimethyl-1H-indol-3-yl]acetic acid], for which the “Activity (P < 0.05)” value is “no”.

For `Cc1c(CC(=O)O)c2cc(F)c(Cl)cc2n1Cc1nc2ccccc2s1` [[1-(1,3-benzothiazol-2-ylmethyl)-6-chloro-5-fluoro-2-methyl-1H-indol-3-yl]acetic acid], the “Activity (P < 0.05)” value is “no”. Take `COc1cc2c(CC(=O)O)c(C)n(Cc3nc4ccccc4s3)c2cc1Cl` [[1-(1,3-benzothiazol-2-ylmethyl)-6-chloro-5-methoxy-2-methyl-1H-indol-3-yl]acetic acid]: the “Activity (P < 0.05)” value was “no”. The same measure for `COc1cc2c(CC(=O)O)c(C)n(Cc3cccc(Br)c3)c2cc1Cl` [[1-(3-bromobenzyl)-6-chloro-5-methoxy-2-methyl-1H-indol-3-yl]acetic acid]: “no”; for `COc1cc2c(CC(=O)O)c(C)n(Cc3cc(Cl)cc(Cl)c3)c2cc1Cl` [[6-chloro-1-(3,5-dichlorobenzyl)-5-methoxy-2-methyl-1H-indol-3-yl]acetic acid]: “no”; for `COc1cc2c(CC(=O)O)c(C)n(Cc3cccc(Cl)c3)c2cc1Cl` [[6-chloro-1-(3-chlorobenzyl)-5-methoxy-2-methyl-1H-indol-3-yl]acetic acid]: “no”. Next, `Cc1c(CC(=O)O)c2c(Cl)cc(Cl)cc2n1Cc1cccc(OC(F)(F)F)c1` [{4,6-dichloro-2-methyl-1-[3-(trifluoromethoxy)benzyl]-1H-indol-3-yl}acetic acid]: “no”; `Cc1c(CC(=O)O)c2cc(Cl)c(Cl)cc2n1Cc1cccc(OC(F)(F)F)c1` [{5,6-dichloro-2-methyl-1-[3-(trifluoromethoxy)benzyl]-1H-indol-3-yl}acetic acid]: “no”; `Cc1cc2c(CC(=O)O)c(C)n(Cc3cccc(OC(F)(F)F)c3)c2cc1Cl` [{6-chloro-2,5-dimethyl-1-[3-(trifluoromethoxy)benzyl]-1H-indol-3-yl}acetic acid]: “yes”. On to `Cc1cc2c(CC(=O)O)c(C)n(Cc3cccc(C(F)(F)F)c3)c2cc1Cl` [{6-chloro-2,5-dimethyl-1-[3-(trifluoromethyl)benzyl]-1H-indol-3-yl}acetic acid], for which the “Activity (P < 0.05)” value is on record as “no”.

On to `Cc1c(CC(=O)O)c2cc(F)c(Cl)cc2n1Cc1cccc(OC(F)(F)F)c1` [{6-chloro-5-fluoro-2-methyl-1-[3-(trifluoromethoxy)benzyl]-1H-indol-3-yl}acetic acid], for which the “Activity (P < 0.05)” value is listed as “no”. The same measure for `COc1cc2c(CC(=O)O)c(C)n(Cc3cccc(OC(F)(F)F)c3)c2cc1Cl` [{6-chloro-5-methoxy-2-methyl-1-[3-(trifluoromethoxy)benzyl]-1H-indol-3-yl}acetic acid]: “yes”; for `COc1cc2c(CC(=O)O)c(C)n(Cc3cccc(C(F)(F)F)c3)c2cc1Cl` [{6-chloro-5-methoxy-2-methyl-1-[3-(trifluoromethyl)benzyl]-1H-indol-3-yl}acetic acid]: “no”.
